Source: PubChem BioAssay AID248 (DTP/NCI, 2004)
Several values for one entry are separate records, joined by “and”; a condition that tells them apart may be missing. Identical values can stand only once. Toxic doses and inconclusive results are not listed. Rule as the data show it: active = T/C of 150% or more; inactive = T/C below 125%.

Test system: L1210 leukemia ip in BDF1 mice, survival T/C
Assay: NCI In Vivo Anticancer Drug Screen. Data for tumor model L1210 Leukemia (intraperitoneal) in B6D2F1 (BDF1) mice
Settings: endpoint: mean survival time, higher = longer survival
How it was run: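 Mice bearing the transplanted tumor received compound or vehicle. Survival of the treated group was divided by that of the vehicle-treated control group to give the ratio.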

[1] = dose: 100.0 mg/kg/injection, schedule: Q04DX003 (ip), vehicle: saline with Tween-80
[2] = dose: 200.0 mg/kg/injection, schedule: Q04DX003 (ip), vehicle: saline with Tween-80
[3] = dose: 400.0 mg/kg/injection, schedule: Q04DX003 (ip), vehicle: saline with Tween-80
[4] = dose: 100.0 mg/kg/injection, schedule: Q04DX002 (ip), vehicle: saline
[5] = dose: 200.0 mg/kg/injection, schedule: Q04DX002 (ip), vehicle: saline
[6] = dose: 100.0 mg/kg/injection, schedule: Q01DX009 (ip), vehicle: saline with Tween-80
[7] = dose: 200.0 mg/kg/injection, schedule: Q01DX009 (ip), vehicle: saline with Tween-80
[8] = dose: 400.0 mg/kg/injection, schedule: Q01DX009 (ip), vehicle: saline with Tween-80
[9] = dose: 25.0 mg/kg/injection, schedule: Q01DX009 (ip), vehicle: saline with Tween-80
[10] = dose: 50.0 mg/kg/injection, schedule: Q01DX009 (ip), vehicle: saline with Tween-80

Measured: T/C

COCc1ccc(C(=O)O)cc1
inactive: dose: 100.0 mg/kg/injection, schedule: Q01DX009 (ip), vehicle: gum acacia 101 % of control | dose: 200.0 mg/kg/injection, schedule: Q01DX009 (ip), vehicle: gum acacia 97 % of control | dose: 400.0 mg/kg/injection, schedule: Q01DX009 (ip), vehicle: gum acacia 101 % of control

Nc1ccc2[nH]ncc2c1
inactive: [1] 102 % of control | [2] 102 % of control | [3] 110 % of control

NNC(=O)c1cnccn1
inactive: dose: 16.0 mg/kg/injection, schedule: Q01DX015 (ip), vehicle: water 102 % of control | dose: 32.0 mg/kg/injection, schedule: Q01DX015 (ip), vehicle: water 115 % of control | dose: 64.0 mg/kg/injection, schedule: Q01DX015 (ip), vehicle: water 109 % of control | dose: 80.0 mg/kg/injection, schedule: Q01DX015 (ip), vehicle: water 105 % of control | dose: 100.0 mg/kg/injection, schedule: Q01DX001 (ip), vehicle: water 96 % of control | dose: 120.0 mg/kg/injection, schedule: Q01DX015 (ip), vehicle: water 113 % of control

Oc1c(CNCCCN2CCCC2)cc(Cl)c2cccnc12
inactive: [4] 97 % of control | [5] 97 % of control

O=C(Nc1cccc([N+](=O)[O-])c1)c1ccc2c(c1)C(=O)OC2=O
inactive: [6] 95 % of control | [7] 87 % of control | [8] 93 % of control

CCCCCCP(=O)(CCCCCC)CCCCCC (tested in a mixture with another compound)
inactive: [6] 100 % of control | [7] 86 % of control

C[n+]1c(/C=C/c2ccnc3c(O)cccc23)sc2ccccc21
inactive: dose: 15.0 mg/kg/injection, schedule: Q01DX001 (ip), vehicle: saline 105 % of control | dose: 30.0 mg/kg/injection, schedule: Q01DX001 (ip), vehicle: saline 97 % of control

CCCNC(=O)Oc1cccc(NC(=O)CC)c1
inactive: [9] 100 % of control | [10] 100 % of control | [6] 92 % of control

CCCCCCC(C)O[Si](C)c1ccc(CC)cc1 (stereo not drawn)
inactive: [1] 99 % of control | [2] 95 % of control | [3] 103 % of control

CN=C(NC)NCc1ccccc1
inactive: dose: 50.0 mg/kg/injection, schedule: Q01DX001 (ip), vehicle: saline 95 % of control | dose: 100.0 mg/kg/injection, schedule: Q01DX001 (ip), vehicle: saline 97 % of control

CC1=NN(c2ccc(S(=O)(=O)O)cc2)C(=O)/C1=C\c1c(C)[nH]n(-c2ccc(S(=O)(=O)O)cc2)c1=O
inactive: dose: 100.0 mg/kg/injection, schedule: Q01DX009 (ip), vehicle: saline 97 % of control | dose: 100.0 mg/kg/injection, schedule: Q04DX003 (ip), vehicle: saline 91 % of control | dose: 200.0 mg/kg/injection, schedule: Q01DX009 (ip), vehicle: saline 106 % of control | dose: 200.0 mg/kg/injection, schedule: Q04DX003 (ip), vehicle: saline 95 % of control | dose: 400.0 mg/kg/injection, schedule: Q01DX009 (ip), vehicle: saline 92 % of control | dose: 400.0 mg/kg/injection, schedule: Q04DX003 (ip), vehicle: saline 91 % of control

COc1ccc(C(=O)C(C)C=O)c(OCc2ccccc2)c1OC (stereo not drawn)
inactive: [10] 98 % of control | [6] 96 % of control | [1] 114 % of control | [7] 93 % of control | [2] 95 % of control | [8] 97 % of control | [3] 103 % of control

NC(N)=N/N=C/N1CCCCC1
inactive: dose: 60.0 mg/kg/injection, schedule: Q01DX Z (oral), vehicle: methylcellulose (MC) 90 % of control | dose: 120.0 mg/kg/injection, schedule: Q01DX Z (oral), vehicle: methylcellulose (MC) 100 % of control | dose: 240.0 mg/kg/injection, schedule: Q01DX Z (ip), vehicle: methylcellulose (MC) 110 % of control | dose: 240.0 mg/kg/injection, schedule: Q01DX Z (oral), vehicle: methylcellulose (MC) 89 % of control | dose: 300.0 mg/kg/injection, schedule: Q01DX Z (oral), vehicle: methylcellulose (MC) 100 % of control | dose: 360.0 mg/kg/injection, schedule: Q01DX Z (ip), vehicle: methylcellulose (MC) 103 % of control | dose: 400.0 mg/kg/injection, schedule: Q01DX Z (oral), vehicle: methylcellulose (MC) 105 % of control | dose: 480.0 mg/kg/injection, schedule: Q01DX Z (ip), vehicle: methylcellulose (MC) 107 % of control | dose: 480.0 mg/kg/injection, schedule: Q01DX Z (oral), vehicle: methylcellulose (MC) 101 % of control | dose: 720.0 mg/kg/injection, schedule: Q01DX Z (ip), vehicle: methylcellulose (MC) 95 % of control

CC(C)CC(=O)/C=C/C=C/c1ccccc1
inactive: dose: 100.0 mg/kg/injection, schedule: Q04DX002 (ip), vehicle: saline with Tween-80 101 % of control | dose: 200.0 mg/kg/injection, schedule: Q04DX002 (ip), vehicle: saline with Tween-80 95 % of control | dose: 400.0 mg/kg/injection, schedule: Q04DX002 (ip), vehicle: saline with Tween-80 111 % of control

CC(=O)OCCn1c([N+](=O)[O-])cnc1/C=[N+](/[O-])CCO
inactive: [4] 111 % of control | [5] 100 % of control | dose: 400.0 mg/kg/injection, schedule: Q04DX002 (ip), vehicle: saline 100 % of control

CC1=NN(c2ccc(S(=O)(=O)O)cc2Cl)C(=O)C1
inactive: [1] 101 % of control | [2] 98 % of control | [3] 90 % of control

CCOC(=O)c1ccc(N(CC(O)CN)S(=O)(=O)c2ccc(C)cc2)cc1 (stereo not drawn)
inactive: [9] 100 % of control | [10] 95 % of control

CCc1nc(N(C)CC(=O)O)nc(CC)c1-c1ccccc1O
inactive: dose: 50.0 mg/kg/injection, schedule: Q04DX002 (ip), vehicle: Klucel (hydroxypropylcellulose) (HPC) 111 % of control | dose: 100.0 mg/kg/injection, schedule: Q04DX002 (ip), vehicle: Klucel (hydroxypropylcellulose) (HPC) 101 % of control and 86 % of control | dose: 200.0 mg/kg/injection, schedule: Q04DX002 (ip), vehicle: Klucel (hydroxypropylcellulose) (HPC) 104 % of control | dose: 400.0 mg/kg/injection, schedule: Q04DX002 (ip), vehicle: Klucel (hydroxypropylcellulose) (HPC) 86 % of control

O=Nc1cc(-c2nccc3ccccc23)[nH]c1-c1ccccc1
inactive: dose: 100.0 mg/kg/injection, schedule: Q01DX001 (ip), vehicle: other 94 % of control | dose: 200.0 mg/kg/injection, schedule: Q01DX001 (ip), vehicle: other 96 % of control | dose: 400.0 mg/kg/injection, schedule: Q01DX001 (ip), vehicle: other 94 % of control

N#CC(C#N)=CN1CCCC1
inactive: dose: 5.0 mg/kg/injection, schedule: Q01DX009 (ip), vehicle: saline with Tween-80 89 % of control | dose: 10.0 mg/kg/injection, schedule: Q01DX009 (ip), vehicle: saline with Tween-80 91 % of control | dose: 20.0 mg/kg/injection, schedule: Q01DX009 (ip), vehicle: saline with Tween-80 93 % of control

COc1cccc(CN(CCC(=O)O)Cc2cccc(OC)c2)c1
inactive: dose: 100.0 mg/kg/injection, schedule: Q01DX009 (ip), vehicle: other 100 % of control | dose: 100.0 mg/kg/injection, schedule: Q04DX003 (ip), vehicle: other 88 % of control | dose: 200.0 mg/kg/injection, schedule: Q01DX009 (ip), vehicle: other 102 % of control | dose: 200.0 mg/kg/injection, schedule: Q04DX003 (ip), vehicle: other 88 % of control | dose: 400.0 mg/kg/injection, schedule: Q01DX009 (ip), vehicle: other 102 % of control | dose: 400.0 mg/kg/injection, schedule: Q04DX003 (ip), vehicle: other 93 % of control

NCCSC1CCCCC1
inactive: [4] 110 % of control | [5] 94 % of control

COc1ccc(COC(=O)N=[N+]=[N-])cc1
inactive: dose: 12.5 mg/kg/injection, schedule: Q04DX003 (ip), vehicle: Klucel (hydroxypropylcellulose) (HPC) 112 % of control | dose: 25.0 mg/kg/injection, schedule: Q01DX009 (ip), vehicle: Klucel (hydroxypropylcellulose) (HPC) 98 % of control | dose: 25.0 mg/kg/injection, schedule: Q04DX003 (ip), vehicle: Klucel (hydroxypropylcellulose) (HPC) 110 % of control | dose: 50.0 mg/kg/injection, schedule: Q01DX009 (ip), vehicle: Klucel (hydroxypropylcellulose) (HPC) 91 % of control | dose: 50.0 mg/kg/injection, schedule: Q04DX003 (ip), vehicle: Klucel (hydroxypropylcellulose) (HPC) 105 % of control | dose: 100.0 mg/kg/injection, schedule: Q01DX001 (ip), vehicle: Klucel (hydroxypropylcellulose) (HPC) 98 % of control | dose: 100.0 mg/kg/injection, schedule: Q04DX003 (ip), vehicle: Klucel (hydroxypropylcellulose) (HPC) 105 % of control
